# Experimental data: US9789096B2, “Methods and compositions for selective and targeted cancer therapy” (Board of Regents of the University of Texas System, priority 2013, dated 2017)
# Where two headings read alike, the source gives them in different places.
# Key:
# Format in all cases: cell-based, human
# [1] = system: H2122; assay: Cell viability dose-response, H2122; conditions: Homo sapiens; for AC50: NCI-H2122, Table 8, 12-point dose-response starting at 50 micromolar
# Method in brief: (§1)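 Viability read as total ATP (Cell Titer Glo) following 4 days' compound exposure, with IC50 derived from dose-response curves. Duplicate 12-point series, top concentration 50 micromolar with 3-fold steps, on cells seeded at 15% confluence in RPMI-1640, 5% FBS, 2 mM L-glutamine.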
# [2] = system: H1819; assay: Cell viability dose-response, H1819; conditions: Homo sapiens; for AC50: NCI-H1819, Table 8, 12-point dose-response starting at 50 micromolar
# Method in brief: as §1
# [3] = system: H2073; assay: Cell viability dose-response, H2073; conditions: Homo sapiens; for AC50: NCI-H2073, Table 8, 12-point dose-response starting at 50 micromolar
# Method: FIG. 6A. […] Cell viability is plotted vs. compound concentration. Compound was added to cells plated at 15% confluence in 96-well plates in RPMI-1640 media supplemented with 5% Fetal Bovine Serum and 2 mM L-Glutamine. After 4 days of incubation, ATP levels were measured using Cell Titer Glo (Promega). Data are presented as the average of 2 replicates ±SEM.
# Selectivity may be measured by the half maximal inhibitory concentration (IC50), which, as used herein, is a measure of the effectiveness of a compound in killing cells. This quantitative measure indicates how much of a particular compound is needed to kill a particular cell population by half (e.g., as indicated by the amount of ATP). […] The IC50 can be determined by constructing a dose-response curve. The lower the IC50, the higher the potency, and the greater the difference between IC50 values for different cell lines (e.g., sensitive lines vs. insensitive lines, and sensitive lines vs. normal lines) the greater the selectivity. […]
# With this information, we synthesized and tested a series of small molecules derived in conception from the oxalamide and chromone scaffold including N-acyl ureas, as shown in Tables 6-8. Each compound was tested in a 12-point dose-response study starting at 50 micromolar and decreasing in 3-fold increments to sub-nanomolar concentrations, in duplicate. Additionally, one or more additional cell line was tested in the same way.
# [4] = NCI-H2122, Tables 3 and 4, read-out: IC50 (uM) vs indicated non-small cell lung cancer cell line H2122
# [5] = NCI-H1819, Tables 3 and 4, read-out: IC50 (uM) vs indicated non-small cell lung cancer cell line H1819
# [6] = NCI-H2073, Tables 3 and 4, read-out: IC50 (uM) vs indicated non-small cell lung cancer cell line H2073
Compound,AC50 [1],AC50 [2],AC50 [3],"IC50 [1, 4]","IC50 [2, 5]","IC50 [3, 6]",further results
O=c1c(Cc2cnccn2)coc2cc(OCc3cnn(-c4ccccc4)c3)ccc12 [SW209207-1],26.6 µM,49.5 µM,49.5 µM,–,–,–,–
Nc1cccc(C(=O)Nc2nc3ccccc3s2)c1 [SW209323-1],–,–,–,0.099 µM,40.3 µM,0.816 µM,–
COc1ncccc1Cc1coc2cc(OCc3cnn(-c4ccccc4)c3)ccc2c1=O [SW209377-1],0.232 µM,49.5 µM,0.204 µM,–,–,–,–
O=c1c(Cc2cccs2)coc2cc(OCc3cnn(-c4ccccc4)c3)ccc12 [SW209378-1],0.081 µM,49.5 µM,0.068 µM,–,–,–,–
O=c1c(Cc2ccsc2)coc2cc(OCc3cnn(-c4ccccc4)c3)ccc12 [SW209379-1],0.082 µM,49.5 µM,0.087 µM,–,–,–,–
O=c1c(Cc2nccs2)coc2cc(OCc3cnn(-c4ccccc4)c3)ccc12 [SW209380-1],0.352 µM,21.2 µM,17.7 µM,–,–,–,–
O=c1c(Cc2cccc(O)c2)coc2cc(OCc3cnn(-c4ccccc4)c3)ccc12 [SW209381-1],7.03 µM,49.5 µM,49.5 µM,–,–,–,–
O=c1c(Cc2ccc(Cl)nc2)coc2cc(OCc3cnn(-c4ccccc4)c3)ccc12 [SW209382-1],0.325 µM,49.5 µM,0.244 µM,–,–,–,–
NCCCCCOc1cccc(CC2=CCc3cc(OCc4cnn(-c5ccccc5)c4)ccc3C2=O)c1 [SW209383-1],2.37 µM,49.5 µM,49.5 µM,–,–,–,–
O=C1/C(=C/c2ncc[nH]2)COc2cc(OCc3cnn(-c4ccccc4)c3)ccc21 [SW209384-1],14 µM,15.5 µM,9.68 µM,–,–,–,–
O=C1/C(=C/c2c[nH]cn2)COc2cc(OCc3cnn(-c4ccccc4)c3)ccc21 [SW209385-1],≥ 49.5 µM,18 µM,12.2 µM,–,–,–,–
NC(=O)c1ccc(C(=O)Nc2nc3ccccc3s2)cc1 [SW209411-1],–,–,–,≥ 49.5 µM,3.1 µM,27.8 µM,–
O=C(O)c1ccc(C(=O)Nc2nc3ccccc3s2)cc1 [SW209412-1],–,–,–,≥ 49.5 µM,≥ 49.5 µM,49.5 µM,–
Nc1ccc2nc(NC(=O)c3ccc(C(=O)O)cc3)sc2c1 [SW209413-1],–,–,–,≥ 49.5 µM,≥ 49.5 µM,49.5 µM,–
COC(=O)c1ccc(C(=O)Nc2nc3ccccc3s2)cc1 [SW209414-1],–,–,–,≥ 49.5 µM,≥ 49.5 µM,49.5 µM,–
O=C(Nc1nc2cnccc2s1)c1ccccc1 [SW209562-1],–,–,–,≥ 49.5 µM,≥ 49.5 µM,49.5 µM,–
Nc1ccc(C(=O)Nc2nc3ccccc3s2)cc1 [SW209563-1],–,–,–,0.027 µM,19.7 µM,0.184 µM,–
O=C(c1ccccc1)c1ccc(/C(=N/c2nc3ccc(OCc4ccc(Cl)cc4)cc3s2)OCc2ccc(Cl)cc2)cc1 [SW211559-1],–,–,–,0.086 µM,0.9 µM,0.165 µM,–
C#CCOc1ccc(C(=O)c2ccc(NC(=O)C(=O)NCCc3ccccc3)cc2)cc1 [SW211560-1],–,–,–,–,–,–,"IC50 ([1]; NCI-H2122, 12-point dose-response starting at 50 micromolar, 3-fold increments, in duplicate, read-out: toxicity data, H2122): ≥ 49.5 µM; IC50 ([2]; NCI-H1819, 12-point dose-response starting at 50 micromolar, 3-fold increments, in duplicate, read-out: toxicity data, H1819): ≥ 49.5 µM; IC50 ([3]; NCI-H2073, 12-point dose-response starting at 50 micromolar, 3-fold increments, in duplicate, read-out: toxicity data, H2073): 22.7 µM"
COC(=O)c1ccc2nc(NC(=O)c3ccc(C(=O)c4ccccc4)cc3)sc2c1 [SW211561-1],–,–,–,7.75 µM,16.5 µM,29.1 µM,–
Nc1ccc(C(=O)Nc2nc3ccccc3[nH]2)cc1 [SW211566],–,–,–,≥ 49.5 µM,≥ 49.5 µM,49.5 µM,–
C#CCOc1cccc(-c2coc3cc(OCc4cnn(-c5ccccc5)c4)ccc3c2=O)c1 [SW 209087-1],0.106 µM,49.5 µM,49.5 µM,–,–,–,–
OC(CCc1ccc(Br)cc1)Cn1ccnc1 (stereo not drawn) [SW 209089-1],≥ 49.5 µM,49.5 µM,49.5 µM,–,–,–,–
